In ChEMBL document CHEMBL6078714, “Discovery of N-Trifluoromethylated Noscapines as Novel and Potent Agents for the Treatment of Glioblastoma” (J Med Chem, 2025):
Active and inactive are the calls of the source. The calls are words filed in the database; no cut-off is given here.

Assays:
[1] = system: U-118-MG; test: Antiproliferative activity against human U-118- MG cells assessed as inhibition of cell proliferation at 10 uM by crystal violet staining based analysis; format: functional
[2] = Stability of compound in sodium phosphate buffer at pH 7.4 measured after 48 hrs by 1H NMR analysis; format: physicochemical; details: pH 7.4, 48 h
[3] = Drug distribution in Sprague-Dawley rat plasma at 5 mg/kg, ip measured after 0.5 hrs; format: ADME, organism-based
[4] = Toxicity in male BALB/c nude mouse xenografted with human U-118-MG cells assessed as effect on serum AST level at 2.5 to 10 mg/kg, ip administered daily for 4 weeks; format: organism-based; details: in vivo, 672 h, dose 2.5-10 mg/kg
[5] = system: U-118-MG; test: Cell cycle arrest in human U-118-MG cells assessed as accumulation of cells at G2 phase at 20 uM incubated for 24 hrs by flow cytometric analysis (reference value: 30.6 %); format: functional
[6] = system: U-118-MG; test: Induction of apoptosis in human U-118-MG cells assessed as downregulation of Bcl-XL expression level at 1 to 40 uM incubated for 24 hrs by Western blot analysis; format: functional, cell-based; details: dose 1-40 µM
[7] = Stability of compound in sodium carbonate buffer at pH 10 measured after 48 hrs by 1H NMR analysis; format: physicochemical; details: pH 10, 48 h
[8] = AUC (0 to 24 hrs) in Sprague-Dawley rat at 5 mg/kg, ip; format: ADME, organism-based; details: in vivo
[9] = system: U-118-MG; test: Cell cycle arrest in human U-118-MG cells assessed as accumulation of cells at G1 phase at 20 uM incubated for 24 hrs by flow cytometric analysis (reference value: 56.2 %); format: functional
[10] = system: U-118-MG; test: Cell cycle arrest in human U-118-MG cells assessed as accumulation of cells at S phase at 30 uM incubated for 24 hrs by flow cytometric analysis (reference value: 10.7 %); format: functional
[11] = Toxicity in male BALB/c nude mouse xenografted with human U-118-MG cells assessed as metastasis in kidney at 2.5 to 10 mg/kg, ip administered daily for 4 weeks by H and E staining based analysis; format: organism-based; details: in vivo, 672 h, dose 2.5-10 mg/kg
[12] = system: U-118-MG; test: Induction of apoptosis in human U-118-MG cells incubated for 24 hrs by Annexin V-FITC/PI staining based flow cytometric analysis; format: functional, cell-based; details: dose 3-40 µM
[13] = system: U-118-MG; test: Antiproliferative activity against human U-118- MG cells assessed as inhibition of cell proliferation by crystal violet staining based analysis; format: functional; details: dose 10-40 µM
[14] = system: U-118-MG; test: Cell cycle arrest in human U-118-MG cells assessed as accumulation of cells at G2 phase at 30 uM incubated for 24 hrs by flow cytometric analysis (reference value: 30.6 %); format: functional
[15] = Drug distribution in Sprague-Dawley rat plasma at 5 mg/kg, ip measured after 4 hrs; format: ADME, organism-based
[16] = system: U-118-MG; test: Induction of apoptosis in human U-118-MG cells assessed as downregulation of c-Myc expression level at 1 to 40 uM incubated for 24 hrs by Western blot analysis; format: functional, cell-based; details: dose 1-40 µM
[17] = Tmax in Sprague-Dawley rat at 5 mg/kg, ip; format: ADME, organism-based; details: in vivo
[18] = system: U-118-MG; test: Inhibition of cell migration in human U-118-MG cells incubated for 24 hrs by transwell assay; format: functional, cell-based; details: dose 0.1-10 µM
[19] = Observed clearance in Sprague-Dawley rat at 5 mg/kg, ip; format: ADME, organism-based; details: in vivo
[20] = system: U-87 MG; test: Antiproliferative activity against human U-87 MG cells assessed as inhibition of cell proliferation incubated for 72 hrs by CCK8 assay; format: functional, cell-based, U-87MG ATCC
[21] = system: U-118-MG; test: Cell cycle arrest in human U-118-MG cells assessed as accumulation of cells at S phase at 20 uM incubated for 24 hrs by flow cytometric analysis (reference value: 10.7 %); format: functional
[22] = system: U-118-MG; test: Cell cycle arrest in human U-118-MG cells assessed as accumulation of cells at G2 phase at 10 uM incubated for 24 hrs by flow cytometric analysis (reference value: 30.6 %); format: functional
[23] = system: U-118-MG; test: Cell cycle arrest in human U-118-MG cells assessed as accumulation of cells at G2 phase at 3 uM incubated for 24 hrs by flow cytometric analysis (reference value: 30.6 %); format: functional
[24] = Drug distribution in Sprague-Dawley rat brain at 5 mg/kg, ip measured after 4 hrs; format: ADME, organism-based; details: read-out: Ct
[25] = Cmax in Sprague-Dawley rat at 5 mg/kg, ip; format: ADME, organism-based; details: in vivo
[26] = system: U-118-MG; test: Cell cycle arrest in human U-118-MG cells assessed as accumulation of cells at S phase at 3 uM incubated for 24 hrs by flow cytometric analysis (reference value: 10.7 %); format: functional
[27] = Toxicity in male BALB/c nude mouse xenografted with human U-118-MG cells assessed as effect on serum creatinine level at 2.5 to 10 mg/kg, ip administered daily for 4 weeks; format: organism-based; details: in vivo, 672 h, dose 2.5-10 mg/kg
[28] = target: Tubulin (Homo sapiens) (UniProt P68371+Q9H4B7+P0DPH7+P68366+Q13509+Q71U36+P04350+Q3ZCM7+P07437+P68363+Q9BQE3+Q6PEY2+Q13885+Q9BVA1+Q9BUF5); test: Disruption of tubulin polymerization in human U-118-MG cells at 3 to 20 uM by DAPI staining based immunofluorescence analysis; format: cell-based; details: dose 3-20 µM
[29] = system: U-118-MG; test: Cytotoxicity against human U-118-MG cells assessed as reduction in cell viability at 0.1 to 10 uM incubated for 24 hrs; format: functional, cell-based; details: dose 0.1-10 µM
[30] = system: U-118-MG; test: Antitumor activity against human U-118-MG cells xenografted in male BALB/c nude mouse assessed as tumor growth inhibition at 5 mg/kg, ip administered daily for 4 weeks relative to control; format: functional; details: 672 h, read-out: TGI
[31] = Toxicity in male BALB/c nude mouse xenografted with human U-118-MG cells assessed as metastasis in spleen at 2.5 to 10 mg/kg, ip administered daily for 4 weeks by H and E staining based analysis; format: organism-based; details: in vivo, 672 h, dose 2.5-10 mg/kg
[32] = Stability of compound in 0.1M HCl solution at pH 1.0 assessed as parent compound remaining measured after 48 hrs by 1H NMR analysis; format: physicochemical; details: read-out: Stability
[33] = system: U-118-MG; test: Inhibition of cell migration in human U-118-MG cells assessed as decrease in number of migrating cells at 1 uM incubated for 24 hrs by transwell assay; format: functional, cell-based
[34] = system: U-118-MG; test: Antitumor activity against human U-118-MG cells xenografted in male BALB/c nude mouse assessed as tumor growth inhibition at 2.5 mg/kg, ip administered daily for 4 weeks relative to control; format: functional; details: 672 h, read-out: TGI
[35] = Bioavailability in Sprague-Dawley rat at 5 mg/kg, ip; format: ADME, organism-based; details: in vivo
[36] = Toxicity in male BALB/c nude mouse xenografted with human U-118-MG cells assessed as metastasis in lung at 2.5 to 10 mg/kg, ip administered daily for 4 weeks by H and E staining based analysis; format: organism-based; details: in vivo, 672 h, dose 2.5-10 mg/kg
[37] = system: U-118-MG; test: Cell cycle arrest in human U-118-MG cells assessed as accumulation of cells at G1 phase at 30 uM incubated for 24 hrs by flow cytometric analysis (reference value: 56.2 %); format: functional
[38] = system: U-118-MG; test: Cell cycle arrest in human U-118-MG cells assessed as accumulation of cells at S phase at 10 uM incubated for 24 hrs by flow cytometric analysis (reference value: 10.7 %); format: functional

COc1ccc2c(c1OC)C(=O)O[C@@H]2[C@H]1c2c(c(Br)c3c(c2OC)OCO3)CCN1C(F)(F)F
Activity [1]: Active | Stability [2]: Stable | concentration at 0.5 h [3]: 99.6 ng/mL | Activity [4]: Non-toxic | Activity [5]: 40% | Activity [6]: Active | Stability [7]: Stable | AUC [8]: 661 ng·h/mL | Activity [9]: 48.3% | Activity [10]: 14.8% | Activity [11]: Non-toxic | Activity [12]: Dose-dependent-effect | Activity [13]: Dose-dependent-effect | Activity [14]: 52.2% | concentration at 4 h [15]: 69.4 ng/mL | Activity [16]: Active | Tmax [17]: 30 min | inhibition [18]: Dose-dependent-effect | CL [19]: 135 mL/min/kg | IC50 [20]: 7.46 µM | Activity [21]: 9.68% | Activity [22]: 32.1% | Activity [23]: 31.7% | concentration at 4 h [24]: 34.5 ng/g | Cmax [25]: 152 ng/mL | Activity [26]: 10.4% | Activity [27]: Non-toxic | Activity [28]: Active | Activity [29]: inactive | inhibition in vivo at 5 mg/kg [30]: 37.7% | Activity [31]: Non-toxic | remaining at 48 h [32]: 86% | inhibition [33]: Active; Superior Inhibitory Activity Compared To Noscapine And Tmz | inhibition in vivo at 2.5 mg/kg [34]: 34.4% | bioavailability [35]: 61.3% | Activity [36]: Non-toxic | Activity [37]: 29.5% | Activity [38]: 9.24%
